In US7973066B2, “Pyrrolo[1,2-A]imidazoledione effective in the treatment of peripheral neurotoxicity induced by chemotherapeutic agents” (Neurotune AG, priority 2006, dated 2011):
Where two headings read alike, the source gives them in different places.

Tests used:
CIPN [1] = conditions: phase III, 10 weeks of therapy; cited from earlier work
[2] = test system: Vincristine-induced peripheral neuropathy; experiment: Vincristine-induced peripheral neuropathy, paw pressure test; assay type: in vivo, rat; conditions: for anti-hyperalgesic effect on mechanical hyperalgesia after repeated treatment: 30 mg/kg i.p. daily during last five days of vincristine, 1 hr and 12 hr after last administration; for reversal of vincristine mechanical hyper-sensitivity (paw pressure threshold): 100 mg/kg p.o., 30 and 60 min after treatment, 4 days after last vincristine injection; for activity on vehicle treated animals (paw pressure): vehicle treated rats, p.o.
Protocol: Vincristine was administered i.v. (150 μg/kg), every two days until a cumulative dose of 750 μg/kg was reached. Paw mechanical iper-sensitivity was evaluated 4 days after the last vincristine injection (Marchand F. et al. 2003, Brain Res. 980:117-120).
(§1) When a chemotherapeutic injection was to be given on a same day as behavioural testing, rats were injected after the measurement was taken.
(§2) Paw mechanical iper-sensitivity was determined using a Randall & Selitto apparatus exerting a force that increases at constant rate (32 g/s) in agreement with Leighton G. E. et al. (1988, Br. J. Pharmacol 93:553-560). The stimulus at which rats withdraw the paw was evaluated before and at different times after drugs treatment. Results represent the mean of mechanical thresholds expressed as grams. To avoid any possible damage to the animal paw the maximum applied force was fixed at 240 g.

[3] = test system: HT29 human colon carcinoma cell line; experiment: In vitro cytotoxicity and combination studies, ATPlite; conditions: for IC50: read-out: cytotoxic effect IC50
Protocol: In order to verify if the use of NiK-13317 for the treatment of CIPN would not affect the efficacy of anticancer treatments, the effect of NiK-13317 on cytotoxicity of known anticancer drugs was examined in vitro using HT29 human colon carcinoma cell line.
After 72 hours, cells were lysed and cell metabolic activity was quantified with ATPlite kit (Perkin Elmer Life Science) following manufacturer's recommendations. The ATP present in all metabolically active cells catalyses a reaction of transformation of D-luciferin by Luciferase, producing a luminescent signal measured using VICTOR^3™ Multi Label Reader (Perkin Elmer). Results were expressed as percentage of luminescence produced (i.e. ATP produced) compared to the control. Complete concentration-response curves with anticancer drugs were constructed in order to identify the concentrations producing a submaximal and a maximal cytotoxic effect, to be utilized for combination experiments.

[4] = test system: Oxaliplatin-induced peripheral neuropathy; experiment: Oxaliplatin-induced peripheral neuropathy, paw pressure test; assay type: in vivo, rat; conditions: for prevention of oxaliplatin-induced decrease of mechanical threshold: 100 mg/kg p.o. once daily starting three days before oxaliplatin, tested every week 30 min after administration; for effects on vehicle treated animals (paw pressure): vehicle treated rats
Protocol: The cumulative dose of oxliplatin was 36 mg/kg (Cavaletti G. et al. 2001, Eur. J. Cancer 37:2457-2463).
as §1, §2
Maximum hyperalgesia was obtained after a two weeks period of treatment. […] Compound administration was performed in the same days of chemotherapeutic injection.

CIPN [5] = conditions: cancer patients with CIPN; cited from earlier work
[6] = test system: Taxol-induced peripheral neuropathy; experiment: Taxol-induced peripheral neuropathy, paw pressure test; assay type: in vivo, rat; conditions: for anti-hyperalgesic activity, i.v.: 3 mg/kg i.v.; for anti-hyperalgesic activity, i.v. / anti-hyperalgesic activity, i.p.: 30-90 min from administration; for anti-hyperalgesic activity, i.p.: 30 mg/kg i.p.; for rat paw pressure threshold, anti-hyperalgesic effect: 100 mg/kg given orally, 30 and 60 min after treatment
Protocol: Taxol neuropathy was induced by i.p. administration (0.5 mg/kg) once a day, on days 1, 3, 5, 8. Cumulative taxol dose was 2 mg/kg. The pharmacological test was performed 14-18 days after the last taxol injection (Polomano R. C. et al. 2001, Pain 94:293-304).
as §1, §2

[7] = test system: cisplatin-induced pain syndrome; conditions: 51 patients, maximum dose 100 mg/day; cited from earlier work

Compound: Nc1nnc(-c2cccc(Cl)c2Cl)c(N)n1 [lamotrigine]
- reduction of CIPN (CIPN [1]): failed to reduce CIPN

Compound: Cc1ccc(N2C(=O)CN3C(=O)CCC32)cc1 (single isomer, unassigned) [compound of formula (I), 1-(4-Methylphenyl)dihydro-1H-pyrrolo[1,2-a]imidazole-2,5(3H,6H)-dione]
- development of tolerance (general statement) ([2]; rat, in vivo): not to develop tolerance

Compound: CC[C@]1(O)C[C@H]2CN(CCc3c([nH]c4ccccc34)[C@@](C(=O)OC)(c3cc4c(cc3OC)N(C=O)[C@H]3[C@@](O)(C(=O)OC)[C@H](OC(C)=O)[C@]5(CC)C=CCN6CC[C@]43[C@@H]65)C2)C1 [vincristine]
- concentration of maximal cytotoxic effect ([3]; HT29 cells, 72 hours, ATPlite): 100 nM
- IC50 ([3]; Homo sapiens, HT-29, 72 h): 7 nM
- mechanical hyperalgesia produced by vincristine treatment (reduction of paw pressure threshold) ([2]; vincristine 150 μg/kg i.v. every two days, cumulative 750 μg/kg): marked and prolonged mechanical hyperalgesia

Compound: O=C1[O][Pt]2([NH][C@@H]3CCCC[C@H]3[NH]2)[O]C1=O [oxaliplatin]
- IC50 ([3]; HT29 cells, 72 hours, ATPlite): 36000 nM
- paw pressure threshold change caused by repeated oxaliplatin ([4]; oxaliplatin 2.4 mg/kg i.p., 5 consecutive days every week, evident from first week): decrease in paw pressure threshold

Compound: NCC1(CC(=O)O)CCCCC1 [gabapentin]
- anti-hyperalgesic effect on mechanical hyperalgesia after repeated treatment [2]: no significant effects
- reversal of vincristine mechanical hyper-sensitivity (paw pressure threshold) [2]: lacked of any significant effects
- activity on vehicle treated animals (paw pressure) [2]: devoid of any significant activity
- adverse side effects such as nystagmus and dizziness (CIPN [5]): significant more adverse side effects
- reduction of pain intensity (NRS score), sensory neuropathy (ECOG rating), and other adverse events (CIPN [5]): failed to reduce
- prevention of oxaliplatin-induced decrease of mechanical threshold [4]: only a moderated anti-hyperalgesic effect
- anti-hyperalgesic activity, pharmacodynamic experiment, 30 min ([4]; after 3 weeks of oxaliplatin, p.o., 30 min after treatment): only a moderate effect
- effects on vehicle treated animals (paw pressure) ([4]; p.o.): Neither NiK-13317 or gabapentin induced significant effects
- anti-hyperalgesic activity, i.v. [6]: lacked of any significant effect
- anti-hyperalgesic activity, i.p. [6]: lacked of any significant effect
- rat paw pressure threshold, anti-hyperalgesic effect [6]: not able to induce any anti-hyperalgesic effect

Compound: CNCCC=C1c2ccccc2CCc2ccccc21 [nortriptyline]
- efficacy over placebo on cisplatin-induced pain syndrome [7]: lack of nortriptyline efficacy over placebo

Compound: Cc1ccc(N2C(=O)CN3C(=O)CCC32)cc1 (racemic) [NiK-13317, racemic 1-(4-Methylphenyl)dihydro-1H-pyrrolo[1,2-a]imidazole-2,5(3H,6H)-dione]
- anti-hyperalgesic effect on mechanical hyperalgesia after repeated treatment [2]: statistically significant (p<0.01) anti-hyperalgesic effect
- development of tolerance after repeated treatment ([2]; 30 mg/kg i.p. daily, 5 days): without development of tolerance
- anti-hyperalgesic effect 23 hr after the 4th administration ([2]; 30 mg/kg i.p. daily, 23 hr after 4th administration (1 hr before last injection)): statistically significant effect (p<0.05)
- reversal of vincristine mechanical hyper-sensitivity (paw pressure threshold) [2]: pronounced significant reversal
- activity on vehicle treated animals (paw pressure) [2]: devoid of any significant activity
- prevention of oxaliplatin-induced decrease of mechanical threshold [4]: completely prevented
- anti-hyperalgesic activity, pharmacodynamic experiment, 8 hr ([4]; after 3 weeks of oxaliplatin, 100 mg/kg p.o., 8 hr after treatment): still active
- anti-hyperalgesic activity, pharmacodynamic experiment, 30 min and 4 hr ([4]; after 3 weeks of oxaliplatin, given orally, 30 min and 4 hr after administration): active
- effects on vehicle treated animals (paw pressure) ([4]; p.o.): Neither NiK-13317 or gabapentin induced significant effects
- anti-hyperalgesic activity, i.v. [6]: active
- anti-hyperalgesic activity, i.p. [6]: active
- rat paw pressure threshold, anti-hyperalgesic effect [6]: significantly increased

Compound: CC(=O)O[C@H]1C(=O)[C@@]2(C)[C@H]([C@H](OC(=O)c3ccccc3)[C@]3(O)C[C@H](OC(=O)[C@H](O)[C@@H](NC(=O)c4ccccc4)c4ccccc4)C(C)=C1C3(C)C)[C@]1(OC(C)=O)CO[C@@H]1C[C@@H]2O [taxol]
- concentration of maximal cytotoxic effect ([3]; HT29 cells, 72 hours, ATPlite): 100 nM
- IC50 ([3]; Homo sapiens, HT-29, 72 h): 8 nM
- mechanical hyperalgesia produced by taxol treatment ([6]; taxol 0.5 mg/kg i.p. on days 1, 3, 5, 8): significant mechanical hyperalgesia
